{
  "source": "patent US12082907B2",
  "about": "“Systems, methods, and apparatus for multichannel imaging of fluorescent sources in real-time” (Memorial Sloan Kettering Cancer Center, priority 2013, dated 2024)",
  "tested_on": "spontaneous melanoma miniswine model",
  "assay": "Pre-operative PET-CT SLN mapping in spontaneous melanoma miniswine model",
  "format": "in vivo, Sinclair miniature swine",
  "excerpt": "FIG. 6 depicts imaging of metastatic disease in a spontaneous melanoma miniswine model, in accordance with an embodiment of the present disclosure. ^124I-cRGDY-PEG-C dots and combined PET-optical imaging approaches can evaluate SLN mapping in a spontaneous melanoma miniswine model (Misfeldt, Vet. Immunol. Immunopathol. (1994); Oxenhandler, Am. J. Pathol. (1979); Millikan, J. Invest. Dermatol. (1974)) (Sinclair miniature swine, Sinclair Research Center). Image-guided metastatic disease detection, staging, and the assessment of differential tumor burden in SLN/s were evaluated in 4-10 kg miniswine (n=5) in conjunction with correlative histopathology. […]\nFIGS. 7A-7I depict image-guided SLN Mapping in a spontaneous melanoma miniswine model using pre-operative PET imaging, in accordance with an embodiment of the present disclosure. These studies were expanded to include optical imaging using the portable ArteMIS™ fluorescence camera system, along with radiodetection using the gamma probe, for performing real-time assessments of the draining tumor lymphatics and nodal metastases. […] FIG. 7I depicts radioactivity levels of the primary tumor, SLN (in vivo, ex vivo), and a site remote from the primary tumor (i.e., background), using a handheld gamma probe. […]",
  "data": [
    {"substance": "2-deoxy-2-[^18F]fluoro-D-glucose [^18F-FDG]", "values": [
      {"measurement": "discrimination of metastatic disease from inflammatory processes", "setting": "miniswine with granulomatous inflammatory changes (n=3), PET-CT", "value": "failed to detect metastatic disease"},
      {"measurement": "detection of nodal metastases on PET-CT", "setting": "representative miniswine, neck nodes, dynamic imaging over 1 hour", "value": "clear absence of nodal metastases"}
    ]}
  ]
}
